Experimental data from ChEMBL document CHEMBL3779839, “Identification of Novel GPR55 Modulators Using Cell-Impedance-Based Label-Free Technology” (J Med Chem, 2016).
The source made the active and inactive calls. No cut-off for these calls is given here.

Key:
[1] = target: T1, G-protein coupled receptor 55 (Homo sapiens, UniProt Q9Y2T6); experiment: Agonist activity at recombinant human GPR55 expressed in HEK293 cells after 5 mins by xCELLigence assay; type: cell-based
Cannabinoid receptor 1 = Cannabinoid receptor 1 (Homo sapiens, UniProt P21554); experiment: Displacement of [3H]CP55940 from human CB1 receptor expressed in HEK293 EBNA cells after 90 mins by liquid scintillation spectrophotometer; type: cell-based
Cannabinoid receptor 2 [2] = target: T2, Cannabinoid receptor 2 (Homo sapiens, UniProt P34972); experiment: Displacement of [3H]CP55940 from human CB2 receptor expressed in HEK293 EBNA cells after 90 mins by liquid scintillation spectrophotometer; type: cell-based
[3] = target: T1, G-protein coupled receptor 55; experiment: Agonist activity at recombinant human GPR55 expressed in HEK293 cells at 1 uM after 5 mins by xCELLigence assay relative to LPI; type: cell-based
[4] = target: T1, G-protein coupled receptor 55; experiment: Antagonist activity at recombinant human GPR55 expressed in HEK293 cells assessed as LPI mediated receptor activation by measuring LPI Emax at 1 uM after 5 mins by xCELLigence assay (reference value: 99 to 104%); type: cell-based
HEK293 [5] = experiment: Effect on non-transfected HEK293 cells at 1 nM to 10 uM after 5 mins by xCELLigence assay; type: functional, cell-based; conditions: Homo sapiens
[6] = target: T1, G-protein coupled receptor 55; experiment: Partial agonist activity at recombinant human GPR55 expressed in HEK293 cells at 1 uM after 5 mins by xCELLigence assay relative to LPI; type: cell-based
Cannabinoid receptor 2 [7] = target: T2, Cannabinoid receptor 2; experiment: Displacement of [3H]CP55940 from human CB2 receptor expressed in HEK293 EBNA cells at 40 uM after 90 mins by liquid scintillation spectrophotometer; type: cell-based
Cannabinoid receptor 2 [8] = target: T2, Cannabinoid receptor 2; experiment: Agonist activity at human CB2 receptor expressed in CHO cells after 30 mins by [35S]-GTPgammaS binding assay relative to control
[9] = target: T1, G-protein coupled receptor 55; experiment: Partial agonist activity at recombinant human GPR55 expressed in HEK293 cells after 5 mins by xCELLigence assay; type: cell-based
HEK293 [10] = experiment: Effect on non-transfected HEK293 cells at 10 uM after 5 mins by xCELLigence assay; type: functional, cell-based; conditions: Homo sapiens

T1 sequence (Q9Y2T6 whole entry): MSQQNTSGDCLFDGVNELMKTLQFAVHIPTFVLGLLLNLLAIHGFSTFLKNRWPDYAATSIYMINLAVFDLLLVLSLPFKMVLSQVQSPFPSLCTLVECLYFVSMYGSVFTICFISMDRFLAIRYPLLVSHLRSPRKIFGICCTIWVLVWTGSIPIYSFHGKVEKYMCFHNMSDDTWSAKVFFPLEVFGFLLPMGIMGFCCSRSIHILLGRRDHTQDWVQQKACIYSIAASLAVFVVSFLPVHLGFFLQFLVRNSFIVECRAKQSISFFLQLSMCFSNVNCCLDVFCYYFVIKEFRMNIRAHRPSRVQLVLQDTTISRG
T2 sequence (P34972 whole entry): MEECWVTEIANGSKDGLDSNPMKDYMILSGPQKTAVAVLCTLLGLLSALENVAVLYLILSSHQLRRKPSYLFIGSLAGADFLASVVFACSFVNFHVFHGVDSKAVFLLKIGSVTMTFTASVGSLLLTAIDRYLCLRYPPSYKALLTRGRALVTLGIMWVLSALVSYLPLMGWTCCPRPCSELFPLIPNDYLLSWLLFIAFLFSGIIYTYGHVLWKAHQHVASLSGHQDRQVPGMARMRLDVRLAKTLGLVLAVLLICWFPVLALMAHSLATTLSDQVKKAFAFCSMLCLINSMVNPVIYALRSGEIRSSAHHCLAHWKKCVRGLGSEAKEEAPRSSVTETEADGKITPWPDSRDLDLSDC
Sequence of Cannabinoid receptor 1 (P21554 whole entry): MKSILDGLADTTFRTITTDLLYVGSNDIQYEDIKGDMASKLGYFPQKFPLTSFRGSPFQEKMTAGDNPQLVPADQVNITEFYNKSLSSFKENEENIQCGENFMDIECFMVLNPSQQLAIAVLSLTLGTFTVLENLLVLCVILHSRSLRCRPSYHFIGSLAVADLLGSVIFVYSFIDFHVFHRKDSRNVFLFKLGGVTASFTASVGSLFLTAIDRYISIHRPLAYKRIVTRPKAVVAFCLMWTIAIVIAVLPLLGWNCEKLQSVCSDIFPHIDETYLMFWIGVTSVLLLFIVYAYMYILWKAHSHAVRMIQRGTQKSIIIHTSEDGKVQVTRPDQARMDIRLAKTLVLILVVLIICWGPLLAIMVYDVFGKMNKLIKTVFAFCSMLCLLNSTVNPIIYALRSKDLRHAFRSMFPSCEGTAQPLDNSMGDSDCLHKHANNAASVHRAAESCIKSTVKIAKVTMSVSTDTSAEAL

SMILES | inhibition (Cannabinoid receptor 2 [7]) [%] | EC50 (Cannabinoid receptor 2 [8]) [nM] | EC50 [1] [nM] | Activity [1] | Ki (Cannabinoid receptor 1) [µM] | Ki (Cannabinoid receptor 2 [2]) [µM] | Emax [3] [%] | Emax [4] [%] | Activity (HEK293 [5]) | Emax [6] [%] | EC50 [9] [nM] | Activity (HEK293 [10])
COc1ccc2c(c1)OC(C)(C)c1cnn(CNC(=O)CN3CCN(c4ccccc4OC)CC3)c1-2 |  |  |  | inactive | > 40 | > 40 |  |  |  |  |  | 
COc1ccc(N2CCN(CC(=O)NCn3ncc4c3-c3ccc(OC)cc3OC4(C)C)CC2)cc1 |  |  |  | inactive | > 40 | > 40 | < 25 | 80 | inactive |  |  | 
COc1ccc2c(c1)OC(C)(C)c1cnn(CNC(=O)CN3CCN(c4ccccc4)CC3)c1-2 | 70 |  |  | inactive | > 40 | 4.92 | < 25 | 97 | inactive |  |  | 
COc1ccc2c(c1)OC(C)(C)c1cn(CCN3CCN(C(=O)C4CCCO4)CC3)nc1-2 (stereo not drawn) | 70 |  |  |  | > 40 | 1.07 |  | 102 | inactive | 51 | 0.4 | 
COc1ccc2c(c1)OC(C)(C)c1cn(CCN3CCN(C(=O)COc4ccccc4)CC3)nc1-2 |  |  |  |  | > 40 | > 40 |  | 100 | inactive | 52 |  | 
COc1ccc2c(c1)OC(C)(C)c1cn(CNC(=O)CN3CCN(c4ccccc4OC)CC3)nc1-2 |  |  |  |  | > 40 | > 40 |  | 90 | inactive | 51 | 6.36 | 
COc1ccc2c(c1)OC(C)(C)c1cnn(CCN3CCN(C(=O)c4cccs4)CC3)c1-2 |  |  |  |  | > 40 |  | < 25 | 99 | inactive |  |  | 
COc1ccc2c(c1)OC(C)(C)c1cn(CNC(=O)CN3CCN(c4cccc(C)c4C)CC3)nc1-2 |  |  |  | inactive | > 40 | > 40 | < 25 | 102 | inactive |  |  | 
COc1ccc2c(c1)OC(C)(C)c1cnn(CNC(=O)CN3CCN(c4cccc(C)c4C)CC3)c1-2 |  |  |  | inactive | > 40 | > 40 |  |  |  |  |  | 
COc1ccc2c(c1)OC(C)(C)c1cnn(CCN3CCN(C(=O)c4ccccc4)CC3)c1-2 |  |  |  |  | > 40 |  |  |  |  |  |  | 
COc1ccc2c(c1)OC(C)(C)c1cnn(CCN3CCN(C(=O)c4ccco4)CC3)c1-2 |  |  |  |  | > 40 |  | < 25 | 97 | inactive |  |  | 
COc1ccc2c(c1)OC(C)(C)c1cn(CCN3CCN(C(=O)c4ccccc4)CC3)nc1-2 | 70 |  |  |  | > 40 | 3.6 |  | 105 | inactive | 51 | 0.6 | 

Now from value to compound, other results behind:

inhibition (Cannabinoid receptor 2 [7]) [%] | EC50 (Cannabinoid receptor 2 [8]) [nM] | EC50 [1] [nM] | SMILES | Activity [1] | Ki (Cannabinoid receptor 1) [µM] | Ki (Cannabinoid receptor 2 [2]) [µM] | Emax [3] [%] | Emax [4] [%] | Activity (HEK293 [5]) | Emax [6] [%] | EC50 [9] [nM] | Activity (HEK293 [10])
70 | 392 |  | COc1ccc2c(c1)OC(C)(C)c1cn(CCN3CCN(C(=O)c4cccs4)CC3)nc1-2 |  | > 40 | 0.0154 |  | 96 | inactive | 45 |  | 
70 |  |  | COc1ccc2c(c1)OC(C)(C)c1cn(CCN3CCN(C(=O)c4ccco4)CC3)nc1-2 |  | > 40 | 0.698 |  | 106 | inactive | 43 |  | 
70 |  |  | COc1ccc2c(c1)OC(C)(C)c1cn(CCN3CCN(C(=O)C(C)(C)C)CC3)nc1-2 |  | > 40 | 6.39 |  | 100 | inactive | 49 |  | 
70 |  |  | COc1ccc2c(c1)OC(C)(C)c1cn(CCN3CCN(C(=O)C4CCCCC4)CC3)nc1-2 |  | > 40 | 0.523 |  | 99 | inactive | 47 |  | 
70 |  |  | COc1ccc2c(c1)OC(C)(C)c1cn(CNC(=O)CN3CCN(c4ccccc4)CC3)nc1-2 | inactive | > 40 | 1.58 | < 25 | 94 | inactive |  |  | 
 |  | 2.82 | CCCCCCCCCCCCCCCCCC(=O)OC[C@@H](O)COP(=O)(O)O[C@@H]1[C@H](O)[C@H](O)[C@@H](O)[C@H](O)[C@H]1O |  |  |  |  |  |  |  |  | Active
